# According to US12709609B2, “Crystalline form of Selinexor” (Karyopharm Therapeutics Inc., priority 2020, dated 2026):
# Columns and labels:
# [1] = Dynamic vapor sorption (DVS) moisture sorption isotherm; type: physicochemical
# Experimental: Sorption isotherms were obtained using a SMS DVS Intrinsic moisture sorption analyser, controlled by DVS Intrinsic Control software. The sample temperature was maintained at 25° C. by the instrument controls. The humidity was controlled by mixing streams of dry and wet nitrogen, with a total flow rate of 200 ml/min. The relative humidity was measured by a calibrated Rotronic probe (dynamic range of 1.0-100% RH), located near the sample. The weight change, (mass relaxation) of the sample as a function of % RH was constantly monitored by a microbalance (accuracy±0.005 mg). Typically, 5 to 30 mg of sample was placed in a tared mesh stainless steel basket under ambient conditions. The sample was loaded and unloaded at 40% RH and 25° C. (typical room conditions). A moisture sorption isotherm was performed as outlined below (2 scans per complete cycle). The standard isotherm was performed at 25° C. at 10% RH intervals over a 0-90% RH range. Typically, a double cycle (4 scans) was carried out. Data analysis was carried out within Microsoft Excel using the DVS Analysis Suite. [table] The sample was recovered after completion of the isotherm and re-analysed by XRPD.
# [2] = Thermogravimetric analysis (TGA); type: physicochemical; details: from ambient temperature to about 200° C., followed by sample degradation
# Experimental: TGA data were collected on a TA Instruments Q500 TGA, equipped with a 16 position auto-sampler. Typically, 5-10 mg of each sample was loaded onto a pre-tared aluminum DSC pan and heated to 10° C./min from ambient temperature to 350° C. A nitrogen purge at 60 ml/min was maintained over the sample. The instrument control software was Advantage for Q Series and Thermal Advantage and the data were analysed using Universal Analysis or TRIOS
smiles,measurement,setting,value
"O=C(/C=C\n1cnc(-c2cc(C(F)(F)F)cc(C(F)(F)F)c2)n1)NNc1cnccn1 [crystalline Form ZL, (Z)-3-(3-(3,5-bis(trifluoromethyl)phenyl)-1H-1,2,4-triazol-1-yl)-N′-(pyrazin-2-yl) acrylohydrazide]",XRPD pattern after the DVS cycle compared with XRPD prior to the DVS cycle (form stability),[1]; after DVS cycle 0-90% RH,identical
same,DVS weight gain,"[1]; at 90% RH, 25° C., two DVS cycles",about 0.16%
same,moisture uptake behaviour in DVS,[1]; over 0-90% RH range,gradual reversible uptake
same,TGA weight change on heating,[2],No weight change
